{
  "source": "patent US4801604A",
  "about": "(priority 1987, dated 1989)",
  "origin": "cited, not measured here",
  "settings": "phenytoin and structurally related drugs",
  "data": [
    {"smiles": "O=C1NC(=O)C(c2ccccc2)(c2ccccc2)N1", "note": "[phenytoin]", "values": [
      {"measurement": "Side effects (in words)", "value": "hyperplasia of the gums, cerebellar degeneration, gastric distress and serious skin rashes"}
    ]}
  ]
}
